Assay results: patent US7906491B2 (Univisitair Medisch Centrum Utrecht, priority 2002, dated 2011)

Target: T1, Epac1-ΔDEP1 (Homo sapiens, UniProt O95398)
T1 sequence (O95398 191-923 limits assumed): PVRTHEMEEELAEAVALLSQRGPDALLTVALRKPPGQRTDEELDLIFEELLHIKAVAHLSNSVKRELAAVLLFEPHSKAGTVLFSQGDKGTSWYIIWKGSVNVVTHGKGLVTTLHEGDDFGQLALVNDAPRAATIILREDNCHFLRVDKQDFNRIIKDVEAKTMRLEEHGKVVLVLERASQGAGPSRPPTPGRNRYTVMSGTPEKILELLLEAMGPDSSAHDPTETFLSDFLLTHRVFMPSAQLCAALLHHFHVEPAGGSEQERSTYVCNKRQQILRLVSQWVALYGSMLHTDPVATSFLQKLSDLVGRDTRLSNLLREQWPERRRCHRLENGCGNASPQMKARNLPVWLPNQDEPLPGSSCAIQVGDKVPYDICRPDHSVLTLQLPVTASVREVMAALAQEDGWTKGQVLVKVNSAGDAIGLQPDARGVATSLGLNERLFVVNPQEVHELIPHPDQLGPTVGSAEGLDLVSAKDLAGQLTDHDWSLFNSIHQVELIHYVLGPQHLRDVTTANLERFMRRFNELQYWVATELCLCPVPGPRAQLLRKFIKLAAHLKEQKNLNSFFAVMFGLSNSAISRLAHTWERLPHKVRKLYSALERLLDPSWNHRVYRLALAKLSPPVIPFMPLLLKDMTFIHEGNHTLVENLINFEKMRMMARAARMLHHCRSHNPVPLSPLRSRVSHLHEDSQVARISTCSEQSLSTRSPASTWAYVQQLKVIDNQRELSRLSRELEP
Assay: In vitro GEF assay: Epac activity in the exchange reaction towards Rap (mantGDP-loaded Rap1b); for Relative activity of Epac*: key: +++: activity comparible to I-007; ++: activity between I-007 and cAMP; +: activity comparible to cAMP; ±: activity less than cAMP
Assay type: biochemical
Procedure: In vitro GEF assays were performed as described (3,16). […] Buffer conditions were 50 mM Tris pH7.4, 150 mM NaCl, 5% glycerol, 5 mM DTE, 60 μM GTP. Reactions were carried out in 96-well plates and measured in a Cary Eclipse from Varian Inc., using the manufacturers software.

- maximal activity of Epac1 compared to cAMP (in vitro): three-fold higher
- Relative activity of Epac* (in vitro in the exchange reaction towards Rap): +++
- EC50 (in vitro, FIG. 4, read-out: Half-maximal activation of Epac1): 2.2 µM
Structure (SMILES): CO[C@@H]1[C@@H]2OP(=O)(O)OC[C@H]2O[C@H]1n1c(Sc2ccc(Cl)cc2)nc2c(N)ncnc21 [Compound I-007, 8-(4-chloro-phenylthio)-2′-O-methyladenosine-3′,5′-cyclic monophosphate]
